Laboratory results as given in ChEMBL document CHEMBL1143041, “On the cytotoxicity and status of oxidative stress of two novel synthesized tri-aza macrocyclic diamides as studied in the V79 cell lines” (Bioorg Med Chem, 2007).

Experiments:
[1] = system: V79; assay: Effect on glutathione peroxidase activity in V79 cells at 30 uM after 24 hrs; format: cell-based; details: Cricetulus griseus
[2] = system: V79; assay: Effect on superoxide dismutase activity in V79 cells at 30 uM after 24 hrs; format: cell-based; details: Cricetulus griseus
[3] = system: V79; assay: Effect on catalase activity in V79 cells at 30 uM after 24 hrs; format: cell-based; details: Cricetulus griseus
[4] = system: V79; assay: Effect on malondialdehyde level in V79 cells at 30 uM after 24 hrs; format: functional, Cricetulus griseus
[5] = system: V79; assay: Effect on dityrosine level in V79 cells at 30 uM after 24 hrs; format: functional, Cricetulus griseus
[6] = system: V79; assay: Effect on 8-hydroxy-deoxyguanosine level in V79 cells at 30 uM after 24 hrs; format: functional, Cricetulus griseus
[7] = system: V79; assay: Increase in glutathione peroxidase activity in V79 cells at 8 mM after 24 hrs; format: cell-based; details: Cricetulus griseus
[8] = system: V79; assay: Effect on malondialdehyde level in V79 cells at 0.5 mM after 24 hrs; format: functional, Cricetulus griseus
[9] = system: V79; assay: Effect on malondialdehyde level in V79 cells at 1 mM after 24 hrs; format: functional, Cricetulus griseus
[10] = system: V79; assay: Effect on malondialdehyde level in V79 cells at 2 mM after 24 hrs; format: functional, Cricetulus griseus
[11] = Cytotoxicity against V79 cells assessed as viability at 8 mM after 24 hrs by MTT assay; format: cell-based, Cricetulus griseus; details: chinese hamster, read-out: Activity
[12] = system: V79; assay: Stimulation of ROS generation in V79 cells; format: functional, cell-based; details: Cricetulus griseus
[13] = system: V79; assay: Effect on V79 cells assessed as viable cells at 2 mM; format: functional; details: Cricetulus griseus, read-out: Activity
[14] = system: V79; assay: Effect on V79 cells assessed as viable cells at 4 mM; format: functional; details: Cricetulus griseus, read-out: Activity
[15] = system: V79; assay: Effect on V79 cells assessed as apoptotic cells at 2 mM; format: functional, Cricetulus griseus
[16] = system: V79; assay: Effect on V79 cells assessed as apoptotic cells at 4 mM; format: functional, Cricetulus griseus
[17] = system: V79; assay: Effect on V79 cells assessed as necrotic cells at 2 mM; format: functional, Cricetulus griseus
[18] = system: V79; assay: Effect on V79 cells assessed as necrotic cells at 4 mM; format: functional, Cricetulus griseus
[19] = system: V79; assay: Effect on V79 cells assessed as apoptotic cells at 2 mM in presence of 30 uM alpha-tocopherol; format: functional, Cricetulus griseus
[20] = system: V79; assay: Effect on V79 cells assessed as apoptotic cells at 4 mM in presence of 30 uM alpha-tocopherol; format: functional, Cricetulus griseus
[21] = system: V79; assay: Effect on V79 cells assessed as viable cells at 2 mM in presence of 30 uM alpha-tocopherol; format: functional, Cricetulus griseus
[22] = system: V79; assay: Effect on V79 cells assessed as viable cells at 4 mM in presence of 30 uM alpha-tocopherol; format: functional, Cricetulus griseus
[23] = system: V79; assay: Effect on superoxide dismutase activity in V79 cells at 0.5 mM after 24 hrs; format: cell-based; details: Cricetulus griseus
[24] = system: V79; assay: Increase in superoxide dismutase activity in V79 cells at 1 mM after 24 hrs; format: cell-based; details: Cricetulus griseus
[25] = system: V79; assay: Increase in superoxide dismutase activity in V79 cells at 2 mM after 24 hrs; format: cell-based; details: Cricetulus griseus
[26] = system: V79; assay: Increase in superoxide dismutase activity in V79 cells at 4 mM after 24 hrs; format: cell-based; details: Cricetulus griseus
[27] = system: V79; assay: Increase in superoxide dismutase activity in V79 cells at 8 mM after 24 hrs; format: cell-based; details: Cricetulus griseus
[28] = system: V79; assay: Effect on catalase activity in V79 cells at 0.5 mM after 24 hrs; format: cell-based; details: Cricetulus griseus
[29] = system: V79; assay: Increase in catalase activity in V79 cells at 1 mM after 24 hrs; format: cell-based; details: Cricetulus griseus
[30] = system: V79; assay: Increase in catalase activity in V79 cells at 2 mM after 24 hrs; format: cell-based; details: Cricetulus griseus
[31] = system: V79; assay: Increase in catalase activity in V79 cells at 4 mM after 24 hrs; format: cell-based; details: Cricetulus griseus
[32] = system: V79; assay: Increase in catalase activity in V79 cells at 8 mM after 24 hrs; format: cell-based; details: Cricetulus griseus
[33] = system: V79; assay: Effect on glutathione peroxidase activity in V79 cells at 0.5 mM after 24 hrs; format: cell-based; details: Cricetulus griseus
[34] = system: V79; assay: Increase in glutathione peroxidase activity in V79 cells at 1 mM after 24 hrs; format: cell-based; details: Cricetulus griseus
[35] = system: V79; assay: Increase in glutathione peroxidase activity in V79 cells at 2 mM after 24 hrs; format: cell-based; details: Cricetulus griseus
[36] = system: V79; assay: Increase in glutathione peroxidase activity in V79 cells at 4 mM after 24 hrs; format: cell-based; details: Cricetulus griseus
[37] = system: V79; assay: Effect on malondialdehyde level in V79 cells at 4 mM after 24 hrs; format: functional, Cricetulus griseus
[38] = system: V79; assay: Effect on malondialdehyde level in V79 cells at 8 mM after 24 hrs; format: functional, Cricetulus griseus
[39] = system: V79; assay: Effect on dityrosine level in V79 cells at 0.5 mM after 24 hrs; format: functional, Cricetulus griseus
[40] = system: V79; assay: Effect on dityrosine level in V79 cells at 1 mM after 24 hrs; format: functional, Cricetulus griseus
[41] = system: V79; assay: Effect on dityrosine level in V79 cells at 2 mM after 24 hrs; format: functional, Cricetulus griseus
[42] = system: V79; assay: Effect on dityrosine level in V79 cells at 4 mM after 24 hrs; format: functional, Cricetulus griseus
[43] = system: V79; assay: Effect on dityrosine level in V79 cells at 8 mM after 24 hrs; format: functional, Cricetulus griseus
[44] = system: V79; assay: Effect on 8-hydroxy-deoxyguanosine level in V79 cells at 0.5 mM after 24 hrs; format: functional, Cricetulus griseus
[45] = system: V79; assay: Effect on 8-hydroxy-deoxyguanosine level in V79 cells at 1 mM after 24 hrs; format: functional, Cricetulus griseus
[46] = system: V79; assay: Effect on 8-hydroxy-deoxyguanosine level in V79 cells at 2 mM after 24 hrs; format: functional, Cricetulus griseus
[47] = system: V79; assay: Effect on 8-hydroxy-deoxyguanosine level in V79 cells at 4 mM after 24 hrs; format: functional, Cricetulus griseus
[48] = system: V79; assay: Effect on 8-hydroxy-deoxyguanosine level in V79 cells at 8 mM after 24 hrs; format: functional, Cricetulus griseus
[49] = system: V79; assay: Effect on glutathione peroxidase activity in V79 cells at 8 mM after 24 hrs in presence of 30 uM alpha-tocopherol; format: cell-based; details: Cricetulus griseus
[50] = system: V79; assay: Effect on superoxide dismutase activity in V79 cells at 8 mM after 24 hrs in presence of 30 uM alpha-tocopherol; format: cell-based; details: Cricetulus griseus
[51] = system: V79; assay: Effect on catalase activity in V79 cells at 8 mM after 24 hrs in presence of 30uM alpha-tocopherol; format: cell-based; details: Cricetulus griseus
[52] = system: V79; assay: Effect on malondialdehyde level in V79 cells at 8 mM after 24 hrs in presence of 30 uM alpha-tocopherol; format: functional, Cricetulus griseus
[53] = system: V79; assay: Effect on dityrosine level in V79 cells at 8 mM after 24 hrs in presence of 30 uM alpha-tocopherol; format: functional, Cricetulus griseus
[54] = system: V79; assay: Effect on 8-hydroxy-deoxyguanosine level in V79 cells at 8 mM after 24 hrs in presence of 30 uM alpha-tocopherol; format: functional, Cricetulus griseus

Cc1c(C)c2c(c(C)c1O)CC[C@@](C)(CCC[C@H](C)CCC[C@H](C)CCCC(C)C)O2 [ALPHA-TOCOPHEROL]
Activity [1]: 14.1 nmol/min/mg | Activity [2]: 13.2 U/mg | Activity (microM/min/mg) [3]: 4.5 | Activity [4]: 7.51 nM/mg | Activity [5]: 0.42 nM/mg | Activity [6]: 3.51

Cc1ccc2c(c1)[S+]([O-])c1cc(C)ccc1OCC(=O)NCCNCCNC(=O)CO2
Activity [7]: 41.1 nmol/min/mg | Activity [8]: 8.72 nM/mg | Activity [9]: 16.53 nM/mg | Activity [10]: 25.16 nM/mg | viability at 24 h, 8000 µM [11]: 24% | Activity [12]: Dose-dependent effect | viability at 2000 µM [13]: 54.4% | viability at 4000 µM [14]: 41.2% | Activity [15]: 40.2% | Activity [16]: 51.4% | Activity [17]: 4.6% | Activity [18]: 6.3% | Activity [19]: 28.5% | Activity [20]: 32.7% | Activity [21]: 71.2% | Activity [22]: 52.6% | Activity [23]: 14.4 U/mg | Activity [24]: 22.1 U/mg | Activity [25]: 36.4 U/mg | Activity [26]: 48.7 U/mg | Activity [27]: 56.4 U/mg | Activity (microM/min/mg) [28]: 6.81 | Activity (microM/min/mg) [29]: 9.71 | Activity (microM/min/mg) [30]: 15.3 | Activity (microM/min/mg) [31]: 27.2 | Activity (microM/min/mg) [32]: 35.7 | Activity [33]: 16.6 nmol/min/mg | Activity [34]: 22.1 nmol/min/mg | Activity [35]: 26.3 nmol/min/mg | Activity [36]: 33.4 nmol/min/mg | Activity [37]: 36.63 nM/mg | Activity [38]: 55.12 nM/mg | Activity [39]: 0.54 nM/mg | Activity [40]: 0.75 nM/mg | Activity [41]: 1.61 nM/mg | Activity [42]: 3.88 nM/mg | Activity [43]: 6.41 nM/mg | Activity [44]: 4.7 | Activity [45]: 5.5 | Activity [46]: 7.4 | Activity [47]: 8.5 | Activity [48]: 9.1 | Activity [49]: 22.4 nmol/min/mg | Activity [50]: 23.5 U/mg | Activity (microM/min/mg) [51]: 10.2 | Activity [52]: 17.63 nM/mg | Activity [53]: 2.21 nM/mg | Activity [54]: 6.4

Cc1ccc2c(c1)Sc1cc(C)ccc1OCC(=O)NCCNCCNC(=O)CO2
Activity [7]: 47.6 nmol/min/mg | Activity [8]: 11.17 nM/mg | Activity [9]: 13.77 nM/mg | Activity [10]: 21.46 nM/mg | Activity [12]: Dose-dependent effect | viability at 2000 µM [13]: 71.4% | viability at 4000 µM [14]: 58.2% | Activity [15]: 25.1% | Activity [16]: 37.3% | Activity [17]: 2.6% | Activity [18]: 4.1% | Activity [19]: 17.4% | Activity [20]: 22.6% | Activity [21]: 80.5% | Activity [22]: 69.1% | Activity [23]: 18.8 U/mg | Activity [24]: 21.3 U/mg | Activity [25]: 31.2 U/mg | Activity [26]: 40.1 U/mg | Activity [27]: 49.2 U/mg | Activity (microM/min/mg) [28]: 5.48 | Activity (microM/min/mg) [29]: 8.47 | Activity (microM/min/mg) [30]: 12.2 | Activity (microM/min/mg) [31]: 22.4 | Activity (microM/min/mg) [32]: 27.2 | Activity [33]: 18.6 nmol/min/mg | Activity [34]: 23.3 nmol/min/mg | Activity [35]: 30.6 nmol/min/mg | Activity [36]: 37.5 nmol/min/mg | Activity [37]: 35.691 nM/mg | Activity [38]: 52.55 nM/mg | Activity [39]: 0.74 nM/mg | Activity [40]: 1.19 nM/mg | Activity [41]: 2.45 nM/mg | Activity [42]: 4.31 nM/mg | Activity [43]: 8.27 nM/mg | Activity [44]: 4.4 | Activity [45]: 5 | Activity [46]: 5.8 | Activity [47]: 7.3 | Activity [48]: 6.9 | Activity [49]: 20.8 nmol/min/mg | Activity [50]: 21.8 U/mg | Activity (microM/min/mg) [51]: 8.77 | Activity [52]: 15.01 nM/mg | Activity [53]: 1.43 nM/mg | Activity [54]: 5.76
